Entries after “also recorded” stand apart in the source; their conditions may differ.
Experiments:
[1] = tested on: Aβ deposits; assay: Long term in vivo effects on amyloid plaques in transgenic mice, cranial window, multiphoton spectroscopy; conditions: tail vein injection, 10 mg/kg
Text: This long lasting binding to the plaques is advantageous for a long term therapeutic effect of the inventive compounds.

[2] = target: T1, Aβ peptide 1-42 (Homo sapiens, UniProt P05067); assay: In vitro fibrillation of Aβ peptide 1-42 followed by TEM; type: biochemical; conditions: for fibrillation morphology by TEM: 20 μM Aβ 1-42, 37° C.
T1 construct: Aβ peptide 1-42 was dissolved in hexafluoroisopropanol
Procedure: Aβ peptide 1-42 was dissolved in hexafluoroisopropanol to a concentration of 1 mg/mL and further diluted to 20 μM in Tris-HCl 5 mM, 75 mM NaCl. The inventive compounds F and G were added in concentrations from 10 to 100 μM and the samples, including references without the inventive compounds, were incubated at 37° C. to initiate fibrillation. After Oh, 20 h and 66 h aliquots were withdrawn, deposited on formvar-carbon coated TEM grids and negatively stained using uranylacetate. A Phillips CM200 run at 200 kV was used to study the progress of fibrillation in the different samples. […] (at Oh). […] These aggregates were covering most of the TEM grid and no smaller fibril or oligomer like structures could be seen. After 66 h of incubation no major change in morphology compared to the 20 h samples could be seen, sheets with separate visible fibrils were found at high density on the grid, of a typical morphology illustrated in FIG. 3.

[3] = tested on: primary chicken neurons; assay: Aβ1-42 induced lesions in primary chicken neurons, MTT viability assay; type: cell-based
Procedure: T:I 1: p-HTAA, Mw=529 g/mol, diluted in vehicle from stock solution in PBS+1.33% DMSO (10 mg/ml).
T:I 2: POWT-13, Mw=2782 g/mol, diluted in vehicle from stock solution in deionized water (40 mg/ml).
Cell source: Telencephalon neurons from 8-day-old chicken embryos (Lohman Brown hybrid)
Nutrition medium: DMEM with 4.5 g glucose/1, 5% Nu Serum, 0.01% gentamycin, 2 mM L-glutamine
Group size: n=6 for each T.I. and R.I. concentration per experiment
Lesion: 10 μM Aβ1-42 (pre-aggregated for 48 h) at DIV8 for 48 h
Evaluation of the effects: MTT on DIV 10
One-day-old fertilized eggs will be stored under appropriate conditions until start of breeding. On embryonic day 0 eggs will be transferred to the breeding incubator and under turning kept at 37.8° C. and 55% humidity until embryonic day eight. […]
Viability of cultures will be determined with the MTT assay using a plate-reader (570 nm) as described e.g. in SOP MET004. […] Since this reaction is catalysed in living cells only this assay can be used for the quantification of cell viability. […] To estimate optical density, a plate-reader (Anthos HT II or pquant) is used at wavelength 570 nm. […]
After 48 hours of incubation of T.I. and Aβ1-42 on cells (DIV10), viability of neurons will be analysed by the MTT assay.

T1 sequence (P05067 672-713 limits assumed): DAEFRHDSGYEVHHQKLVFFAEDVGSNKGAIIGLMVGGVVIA

Question: How did the “binding to Aβ deposits in living mouse brain one week after injection” value ([1]; one week after injection) turn out when `O=C(O)Cc1cc(-c2cccs2)sc1-c1ccc(-c2sc(-c3cccs3)cc2CC(=O)O)s1` [Compound G] was run?
Answer: binding of the inventive compounds to AP deposits could still be observed; also recorded: bound to Aβ deposits in living mouse brain one week after injection

Question: What about the “crossing of the blood brain barrier after intravenous injection” value ([1]; transgenic mice with AD-like pathology) of the same molecule?
Answer: readily cross the blood brain barrier

Question: And the “fibrillation morphology by TEM” value ([2]; 10 μM compound, 20 h)?
Answer: no dense aggregates resembling those in the reference sample; also recorded: low density of oligomer like structures

Question: And the “fibrillation morphology by TEM” value ([2]; 100 μM compound, 20 h)?
Answer: no dense aggregates resembling those in the reference sample; also recorded: low density of short branched fibrils with a very low contrast; also recorded: Short branched fibrils

Question: What about the “fibrillation morphology by TEM” value ([2]; 100 μM compound, 66 h) of the same molecule?
Answer: very few separate short proto-fibrils; also recorded: Short proto-fibrils

Question: What about the “effect on the fibrillation of Aβ peptide 1-42” value ([2]; overall conclusion, 20 h and 66 h) of the same molecule?
Answer: major effect

Question: What about the “viability of neurons (MTT)” value ([3]; test item added to Aβ1-42 during aggregation, then on cells 48 h, FIG. 12) of the same molecule?
Answer: better viability compared to 10 μM Aβ1-42 alone

Question: And the “viability of neurons (MTT)” value ([3]; test item and pre-aggregated 10 μM Aβ1-42 applied on neurons simultaneously, 48 h, FIG. 11)?
Answer: better viability compared to 10 μM Aβ1-42 alone
